Legend:
[1] = tested on: AD triple transgenic mouse (3xTg-AD); test: Alzheimer's disease mouse model, intraventricular osmotic pumps; assay type: in vivo, 3xTg-AD mouse; conditions: local application, same dosage as in EAE mice
From the text: We carried out trials in mouse models exemplifying 3 families of neurological diseases: • EAE (Experimental Autoimmune Encephalomyelite, model of neuroinflammatory disease): SJL/j mice were immunized with two subcutaneous injections, performed 7 days apart, of proteolipid protein (PLP139-151), Freund's adjuvant and inactivated Mycobacterium tuberculosis. The disease severity was rated with a clinical score: 0=healthy; 1=tail weakness; 2=rear limb ataxia and/or paresis; 3=rear limb paralysis and/or front limb paresis; 4=tetraplegia; 5=state of agony or death • AD (Alzheimer's Disease, model of neurodegenerative disease): AD triple transgenic mouse (3xTg-AD) supplied by Jackson Laboratories (http://jaxmice.jax.org/strain/004807.html) Their memory was evaluated using the Passive Avoidance and Radial Maze tests; • TSC (Tuberous sclerosis complex, model of neuro-oncologic disease): TSC1 mouse with TSC1 gene within a flox cassette, supplied by Jackson Laboratories (http://jaxmice.jax.org/strain/005680.html)
We applied intraventricular catheters and everolimus-secreting osmotic pumps implanted subcutaneously on the back of 12 AD mice for 4 weeks. We infused a vehicle to an equal number of mice. We injected everolimus into 10 healthy mice and, finally, the vehicle into another 10. The appropriate pump was replaced after 4 weeks and kept in place for another 4. […]

[2] = tested on: Subependymal Giant Cell Astrocytomas (SEGAs); conditions: systemic administration, cited from earlier work

Structure (SMILES): CO[C@H]1C[C@@H]2CC[C@@H](C)[C@@](O)(O2)C(=O)C(=O)N2CCCC[C@H]2C(=O)O[C@H]([C@H](C)C[C@@H]2CC[C@@H](OCCO)[C@H](OC)C2)CC(=O)[C@H](C)/C=C(\C)[C@@H](O)[C@@H](OC)C(=O)[C@H](C)C[C@H](C)/C=C/C=C/C=C/1C [everolimus]
- Pharmacological activity observed in AD mice [1]: an increase in autophagy
- Study endpoint (volumetric reduction in SEGAs) ([2]; 28 patients affected by TS): reached the endpoint
- Severity grade of adverse reactions ([2]; many adverse reactions, most of infectious origin): 1-3
